How the values were obtained:
NMDA receptor = test: NMDA binding (antagonist radioligand); conditions: 100 µM; rat cerebral cortex
Procedure: (§1) Binding/functional studies were carried out commercially in Eurofins Laboratories (Poitiers, France) and Eurofins Panlabs Discovery Services Taiwan, Ltd. (New Taipei City, Taiwan) using testing procedures that were reported previously (for details see Table S2).
(§2) Table S2. Radioligand binding and functional assays. […]
NMDA (antagonist radioligand) […]
(§3) TRPV1 (VR1) (h) (antagonist effect) […]
(§4) Assays were performed commercially in Eurofins Laboratories (Poitiers, France) or Eurofins Panlabs Discovery
(§5) Services Taiwan, Ltd. (New Taipei City, Taiwan). […]

N-type Ca^2+ channel = target: T1, N-type Ca^2+ channel (Rattus norvegicus, UniProt Q02294); test: N-type Ca2+ channel binding (antagonist radioligand); conditions: rat cerebral cortex, read-out: % Inhibition of Control Specific Binding, N-type Ca2+
T1 construct: Rat cerebral cortex; tissue Eurofins; host or cells: rat cerebral cortex
Procedure: as §1, §2
N-type Ca2+ (antagonist radioligand) […]
as §3, §4, §5

GABA transporter = GABA transporter binding (antagonist radioligand); conditions: 100 µM; rat cerebral cortex
Procedure: as §1, §2
GABA transporter (antagonist radioligand) […]
as §3, §4, §5

GABAA ion channel = GABAA ion channel [3H]GABA binding (agonist radioligand); conditions: 100 µM; rat cerebral cortex
Procedure: as §1, §2
GABAA ion channel [3H]GABA (agonist radioligand) […]
as §3, §4, §5

hERG = target: T2, hERG (Homo sapiens, UniProt Q12809); test: Potassium channel (hERG) binding; conditions: human recombinant HEK-293 cells expressing hERG, human recombinant HEK-293 cell, read-out: % Inhibition of Control Specific Binding, hERG
T2 construct: Eurofins
Procedure: as §1, §2
Potassium channel (hERG)
as §3, §4, §5

[1] = system: fast voltage-gated sodium channels in rat prefrontal cortex pyramidal neurons; test: Patch-clamp of fast sodium currents; format: cell-based; conditions: control = 1.0, n = 7
Procedure: The methodology of slice preparation, slice preincubation, and patch-clamp technique was the same as in our previous studies. Compound 53 was tested at a concentration of 10 µM.
Thus, we determined the influence of 53 on fast voltage-gated sodium channels in rat prefrontal cortex pyramidal neurons (at a concentration of 10 μM) using the patch-clamp technique. Maximal currents were evoked by rectangular voltage steps to 0 mV. […] The effect was not strong, but statistically significant (1.0 in the control and 0.83 ± 0.03 after the application of 53, p < 0.01). It was possible to obtain partial wash-out (0.86 ± 0.03 and the current were normalized to the control level, n = 7, Figure 5).
Figure 5 (A) The influence of compound 53 on sodium current is shown on an example neuron. The current was evoked once every ten seconds by a rectangular voltage-step. […] (B) Example of the sodium current recordings in the control (black trace), after the application of the tested compound (blue trace), and after wash-out (red trace). (C) The averaged normalized maximal current amplitudes in the control, in the presence of 53, and after wash-out. The data were analyzed with a nonparametric repeated measures ANOVA followed by Dunn’s post hoc test. * p < 0.01 (n = 7).

[2] = Neurotoxicity, SH-SY5Y viability (MTS); format: cell-based; conditions: human, SH-SY5Y neuroblastoma cells, 10 and 50 µM, read-out: SH-SY5Y cell viability, % of the control
Procedure: Moreover, the dose-dependent increase in the cells viability was found during the repeated experiment in lower concentrations (Figure 8B). […] Thus, the observed influence of this chemical group for neuronal cells is worth further detailed exploration.
Figure 8 The effect of 53 and the cytostatic drug doxorubicin (DX) on neuroblastoma SH-SY5Y cell line viability after 72 h of incubation at 37 °C, 5% CO2 in the concentration range 1–100 µM (A) and 0.001–1 µM (B). The data were analyzed with one-way ANOVA, followed by Bonferroni’s Comparison Test (Graph Pad Prism 8.0.1 software, San Diego, CA, USA)): *** p < 0.001, **** p < 0.0001 vs. negative control (DMSO 1% in growth media).

mice = test: Capsaicin-induced hypothermia model / core body temperature; format: in vivo; conditions: i.p. 15 min before capsaicin 5 mg/kg; compound 60 50 mg/kg, BCTC 20 mg/kg
Procedure: Capsaicin was dissolved in 1% DMSO and administered at a dose of 5 mg/kg at a time point 0 min. Compound 60 and BCTC (positive control) were suspended in 1% Tween 80 and administered 15 min before capsaicin (at time point -15 min). All compounds were injected i.p. at a constant volume of 10 mL/kg. Control animals received the respective vehicles (1% DMSO or 1% Tween 80). Changes in the rectal temperature were measured using an electronic thermometer (ThermoWorks, Alpine, UT, USA) by inserting the rectal probe to a depth of ~2 cm into the rectum of the mouse. The measurements were taken at −15, 0, 15, 30, 60, 90, 120, and 180 min. The differences in the rectal temperature from baseline (time -15 min for groups receiving compound 60 and BCTC in combination with vehicle or time 0 min for groups receiving vehicle and capsaicin or compound 60 and BCTC in combination with capsaicin) to the respective time point ΔT (°C) were then calculated and analyzed. The results are shown in Figure 4 (see Section 3 Results and Discussion).
Figure 4 Effects of compound 60 and BCTC alone (A) or in combination with capsaicin (B) on the core body temperature in mice. Capsaicin (CPS) was injected at 0 min, as indicated by the arrow. Compound 60 or BCTC were administered 15 min prior to CPS injection. The temperature was measured at −15, 0, 15, 30, 60, 90, 120, and 180 min. Since body temperature returned to control values 60 min after CPS injection, subsequent measurements are not shown. Control animals received vehicles (1% DMSO or 1% Tween 80). All the compounds were administered i.p. Each experimental group consisted of seven to eight animals. The data are presented as the mean differences (ΔT) in rectal temperature from baseline (time −15 for A and time 0 for B) to the respective time point. The data were analyzed with one-way ANOVA followed by Tukey’s post hoc test. ** p < 0.01, *** p < 0.001, **** p < 0.0001 vs. the control group; ^#### p < 0.0001 vs. the CPS-treated group.

[3] = PAMPA permeability (Pre-coated PAMPA Plate System Gentest); format: in vitro ADME; conditions: read-out: Pe (permeability coefficient) ± SD
Text: Caffeine (CFN) and norfloxacin (NFX) were used as the high- and low-permeable references, respectively.

T2 sequence (Q12809 whole entry): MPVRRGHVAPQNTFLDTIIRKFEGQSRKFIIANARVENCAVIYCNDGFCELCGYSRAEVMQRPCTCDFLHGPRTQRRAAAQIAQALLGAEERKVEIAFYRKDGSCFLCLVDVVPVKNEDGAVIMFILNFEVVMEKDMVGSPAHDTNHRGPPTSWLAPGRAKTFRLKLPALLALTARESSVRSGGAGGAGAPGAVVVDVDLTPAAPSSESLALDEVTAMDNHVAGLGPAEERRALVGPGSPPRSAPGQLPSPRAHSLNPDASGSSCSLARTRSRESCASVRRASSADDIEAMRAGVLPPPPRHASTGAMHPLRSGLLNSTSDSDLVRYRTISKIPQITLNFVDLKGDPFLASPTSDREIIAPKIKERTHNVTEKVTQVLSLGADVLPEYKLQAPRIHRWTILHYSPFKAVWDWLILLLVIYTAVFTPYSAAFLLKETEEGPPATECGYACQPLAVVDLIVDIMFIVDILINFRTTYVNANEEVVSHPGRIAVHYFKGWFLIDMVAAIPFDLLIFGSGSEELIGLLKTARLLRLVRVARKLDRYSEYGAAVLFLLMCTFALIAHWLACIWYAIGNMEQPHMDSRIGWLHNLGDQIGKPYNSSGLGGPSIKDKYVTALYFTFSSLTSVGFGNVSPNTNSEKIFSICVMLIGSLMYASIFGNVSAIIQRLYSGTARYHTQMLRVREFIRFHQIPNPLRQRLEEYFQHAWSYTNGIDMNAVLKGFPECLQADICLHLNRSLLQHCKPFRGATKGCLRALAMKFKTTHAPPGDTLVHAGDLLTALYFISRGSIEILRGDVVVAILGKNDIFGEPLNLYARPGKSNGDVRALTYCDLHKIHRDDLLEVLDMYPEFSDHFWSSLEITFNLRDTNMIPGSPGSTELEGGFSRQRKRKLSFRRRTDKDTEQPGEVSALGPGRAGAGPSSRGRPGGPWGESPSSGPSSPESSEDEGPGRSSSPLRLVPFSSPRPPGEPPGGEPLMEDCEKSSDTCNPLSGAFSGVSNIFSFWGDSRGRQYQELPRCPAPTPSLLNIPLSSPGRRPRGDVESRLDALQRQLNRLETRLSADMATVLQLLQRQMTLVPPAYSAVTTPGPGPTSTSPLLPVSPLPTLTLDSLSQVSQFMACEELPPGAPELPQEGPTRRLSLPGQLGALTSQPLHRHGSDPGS
T1 sequence (Q02294 whole entry): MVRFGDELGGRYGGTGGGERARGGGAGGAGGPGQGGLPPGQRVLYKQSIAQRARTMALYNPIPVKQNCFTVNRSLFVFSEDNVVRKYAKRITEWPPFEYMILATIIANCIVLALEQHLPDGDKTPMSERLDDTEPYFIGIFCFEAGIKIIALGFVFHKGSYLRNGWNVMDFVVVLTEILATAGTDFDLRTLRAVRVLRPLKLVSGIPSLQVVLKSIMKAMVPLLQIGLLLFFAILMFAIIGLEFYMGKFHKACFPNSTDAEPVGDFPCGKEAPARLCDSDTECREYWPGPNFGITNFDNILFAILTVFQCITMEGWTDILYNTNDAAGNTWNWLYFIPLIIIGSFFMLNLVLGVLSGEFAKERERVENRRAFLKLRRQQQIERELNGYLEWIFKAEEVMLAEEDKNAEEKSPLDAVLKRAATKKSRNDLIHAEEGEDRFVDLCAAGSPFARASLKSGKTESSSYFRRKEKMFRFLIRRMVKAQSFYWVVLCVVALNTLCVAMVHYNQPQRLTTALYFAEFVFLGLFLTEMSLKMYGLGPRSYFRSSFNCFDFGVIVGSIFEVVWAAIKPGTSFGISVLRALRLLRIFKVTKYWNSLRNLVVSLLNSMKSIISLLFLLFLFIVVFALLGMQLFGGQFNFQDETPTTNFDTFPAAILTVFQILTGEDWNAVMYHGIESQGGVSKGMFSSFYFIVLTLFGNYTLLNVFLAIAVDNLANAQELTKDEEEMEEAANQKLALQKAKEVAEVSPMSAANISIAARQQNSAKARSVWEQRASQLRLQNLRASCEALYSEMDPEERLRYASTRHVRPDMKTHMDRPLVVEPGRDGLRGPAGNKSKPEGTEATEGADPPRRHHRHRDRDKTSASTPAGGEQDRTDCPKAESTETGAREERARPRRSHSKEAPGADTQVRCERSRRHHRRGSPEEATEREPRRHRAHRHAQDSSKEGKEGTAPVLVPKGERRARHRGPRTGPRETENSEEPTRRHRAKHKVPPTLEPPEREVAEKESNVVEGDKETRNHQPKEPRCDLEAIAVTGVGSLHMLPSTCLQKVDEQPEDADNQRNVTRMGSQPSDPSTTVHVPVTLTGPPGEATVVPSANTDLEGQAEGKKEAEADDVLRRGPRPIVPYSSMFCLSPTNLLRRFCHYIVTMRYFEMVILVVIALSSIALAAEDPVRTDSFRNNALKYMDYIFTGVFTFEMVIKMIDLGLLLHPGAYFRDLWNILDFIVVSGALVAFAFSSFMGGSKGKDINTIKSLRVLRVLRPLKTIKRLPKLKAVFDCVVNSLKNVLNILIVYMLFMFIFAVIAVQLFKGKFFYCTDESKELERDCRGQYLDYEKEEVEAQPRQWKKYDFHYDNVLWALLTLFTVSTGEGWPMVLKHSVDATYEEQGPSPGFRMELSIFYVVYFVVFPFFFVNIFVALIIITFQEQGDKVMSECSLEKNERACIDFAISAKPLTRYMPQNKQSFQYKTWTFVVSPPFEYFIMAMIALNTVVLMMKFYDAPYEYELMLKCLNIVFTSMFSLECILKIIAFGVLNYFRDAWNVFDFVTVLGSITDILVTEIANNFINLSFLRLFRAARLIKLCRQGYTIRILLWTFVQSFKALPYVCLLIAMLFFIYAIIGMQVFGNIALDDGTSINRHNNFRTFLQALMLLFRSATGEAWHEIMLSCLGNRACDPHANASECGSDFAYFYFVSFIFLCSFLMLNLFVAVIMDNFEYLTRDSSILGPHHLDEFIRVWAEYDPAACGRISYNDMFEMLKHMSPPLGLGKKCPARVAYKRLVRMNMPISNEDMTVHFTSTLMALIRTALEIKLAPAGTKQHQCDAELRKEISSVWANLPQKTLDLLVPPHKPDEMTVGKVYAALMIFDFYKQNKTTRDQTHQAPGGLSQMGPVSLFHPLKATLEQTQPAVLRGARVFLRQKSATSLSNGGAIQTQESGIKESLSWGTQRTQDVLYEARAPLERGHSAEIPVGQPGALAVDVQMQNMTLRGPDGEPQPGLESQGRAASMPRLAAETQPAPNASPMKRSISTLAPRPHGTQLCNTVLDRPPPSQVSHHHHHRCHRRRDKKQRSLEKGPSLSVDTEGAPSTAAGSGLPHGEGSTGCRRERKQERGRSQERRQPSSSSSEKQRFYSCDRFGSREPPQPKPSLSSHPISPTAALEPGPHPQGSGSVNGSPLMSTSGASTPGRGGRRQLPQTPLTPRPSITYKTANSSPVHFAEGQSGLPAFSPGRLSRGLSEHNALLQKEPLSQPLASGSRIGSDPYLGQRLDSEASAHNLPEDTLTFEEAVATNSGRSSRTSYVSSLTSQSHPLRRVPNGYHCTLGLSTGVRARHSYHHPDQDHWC
T1 sequence (P54287 whole entry partner): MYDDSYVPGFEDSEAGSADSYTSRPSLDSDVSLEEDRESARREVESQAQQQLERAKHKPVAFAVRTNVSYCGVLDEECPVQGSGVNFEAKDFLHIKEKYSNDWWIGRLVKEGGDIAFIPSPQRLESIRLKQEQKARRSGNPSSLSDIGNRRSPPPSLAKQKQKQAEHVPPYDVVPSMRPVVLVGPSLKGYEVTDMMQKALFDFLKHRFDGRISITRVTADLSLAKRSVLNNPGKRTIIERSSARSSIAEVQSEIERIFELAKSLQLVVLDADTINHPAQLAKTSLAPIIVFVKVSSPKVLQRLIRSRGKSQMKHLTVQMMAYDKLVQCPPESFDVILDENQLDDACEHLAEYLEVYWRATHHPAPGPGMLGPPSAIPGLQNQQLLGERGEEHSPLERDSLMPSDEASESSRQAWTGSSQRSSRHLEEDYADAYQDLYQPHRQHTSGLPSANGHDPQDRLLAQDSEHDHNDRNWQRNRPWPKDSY
T1 sequence (P54290 25-944 partner limits assumed): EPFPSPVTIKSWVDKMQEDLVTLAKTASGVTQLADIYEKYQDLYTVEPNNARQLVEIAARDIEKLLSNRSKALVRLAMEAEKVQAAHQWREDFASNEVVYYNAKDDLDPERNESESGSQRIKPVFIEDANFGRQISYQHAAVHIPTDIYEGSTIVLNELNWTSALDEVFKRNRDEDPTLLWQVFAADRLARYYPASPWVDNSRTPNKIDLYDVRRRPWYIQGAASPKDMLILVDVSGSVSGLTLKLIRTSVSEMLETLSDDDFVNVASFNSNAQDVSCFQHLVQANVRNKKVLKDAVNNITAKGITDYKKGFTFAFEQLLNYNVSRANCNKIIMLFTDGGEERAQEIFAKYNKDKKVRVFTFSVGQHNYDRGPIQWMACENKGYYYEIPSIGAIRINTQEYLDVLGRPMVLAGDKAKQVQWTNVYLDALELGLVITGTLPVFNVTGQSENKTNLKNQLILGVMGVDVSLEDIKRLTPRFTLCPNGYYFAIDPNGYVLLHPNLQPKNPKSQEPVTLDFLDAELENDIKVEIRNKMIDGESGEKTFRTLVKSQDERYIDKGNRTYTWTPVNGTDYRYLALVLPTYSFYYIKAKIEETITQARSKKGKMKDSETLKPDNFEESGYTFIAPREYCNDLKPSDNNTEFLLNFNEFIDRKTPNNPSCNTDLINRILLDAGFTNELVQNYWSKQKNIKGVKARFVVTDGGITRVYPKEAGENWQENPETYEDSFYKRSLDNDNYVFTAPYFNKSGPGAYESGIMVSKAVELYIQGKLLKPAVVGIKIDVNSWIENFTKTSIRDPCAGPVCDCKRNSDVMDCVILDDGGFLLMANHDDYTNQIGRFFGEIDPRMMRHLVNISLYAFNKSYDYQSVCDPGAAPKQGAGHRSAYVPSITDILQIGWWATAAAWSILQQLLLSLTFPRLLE
T1 sequence (P54290 945-1091 partner limits assumed): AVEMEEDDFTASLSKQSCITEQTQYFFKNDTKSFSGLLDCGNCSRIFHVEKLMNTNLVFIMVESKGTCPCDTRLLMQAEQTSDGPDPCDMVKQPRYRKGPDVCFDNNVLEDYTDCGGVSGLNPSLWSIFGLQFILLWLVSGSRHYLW

Compound | % Inhibition of Control Specific Binding, NMDA (NMDA receptor) | inhibition at 100 µM (N-type Ca^2+ channel) [%] | % Inhibition of Control Specific Binding, GABA transporter (GABA transporter) | % Inhibition of Control Specific Binding, GABAA ion channel (GABAA ion channel) | inhibition at 100 µM (hERG) [%] | normalized maximal amplitude of sodium current after application ([1]; 10 μM) | normalized maximal amplitude of sodium current after wash-out ([1]; after 10 μM) | viability at 72 h [2] [%] | melting point [°C] | effect on capsaicin-induced hypothermia (co-administration) (mice) | Papp [3] [×10⁻⁶ cm/s]
CC(=O)NC(C(=O)N1CCN(c2cccc(C(F)(F)F)c2)CC1)c1ccccc1 (centres unmarked) [Compound 53, N-(2-oxo-1-phenyl-2-(4-(3-(trifluoromethyl)phenyl)piperazin-1-yl)ethyl)acetamide] | 9.0 (100) % | 1.5 | 2.8 (100) % | −1.1 (100) % | 24 | 0.83 ± 0.03 | 0.86 ± 0.03 | ≤ 140 | 131.8 to 132.5 |  | 
CC(=O)NC(C(=O)N1CCN(c2cccc(OC(F)(F)F)c2)CC1)c1ccccc1 (centres unmarked) [Compound 60, N-(2-oxo-1-phenyl-2-(4-(3-(trifluoromethoxy)phenyl)piperazin-1-yl)ethyl)acetamide] |  |  |  |  |  |  |  |  |  | did not affect the capsaicin-induced hypothermia | 9.15 ± 0.78

Reference: article PMC9221546, “New Phenylglycinamide Derivatives with Hybrid Structure as Candidates for New Broad-Spectrum Anticonvulsants” (Cells, 2022)
